Source: patent publication US11365410B2, “Production and monitoring of metabolites in cells” (President and Fellows of Harvard College, priority 2015, dated 2022)

Experiments:
[1] = molecular target: T1, TetR, regulator sequence SEQ ID NO: 13 (Escherichia coli, UniProt P04483); test: cell-based; assay type: cell-based; settings: anhydrotetracycline; for Fold Induction: 15 h; for EC50: lumped half-maximal parameter from Hill fit
T1 construct: expressed in transfected cells; host or cells: E. coli DH5alpha transformed with pJKR-H (high copy) or pJKR-L (low copy) plasmid
Text: Plasmids were constructed using Gibson isothermal assembly methods (see Gibson, D. G., Young, L., Chuang, R. Y., Venter, J. C., Hutchison, C. A., 3rd and Smith, H. O. (2009) Enzymatic assembly of DNA molecules up to several hundred kilobases. Nat Methods, 6, 343-345 incorporated herein by reference in its entirety) and transformed into DH5α electrocompetent cells (New England Biolabs, Ipswich Mass.). All standard induction plasmids contained the rrnB strong terminator (see Orosz, A., Boros, I. and Venetianer, P. (1991) Analysis of the complex transcription termination region of the Escherichia coli rrnB gene. European journal of biochemistry/FEBS, 201, 653-659 incorporated herein by reference in its entirety) followed by the inducible promoter and the strong g10 RBS (see Olins, P. O., Devine, C. S., Rangwala, S. H. and Kavka, K. S. (1988) The T7 phage gene 10 leader RNA, a ribosome-binding site that dramatically enhances the expression of foreign genes in Escherichia coli. Gene, 73, 227-235 incorporated herein by reference in its entirety) ‘[…],’ (SEQ ID NO:1) driving the expression of sfGFP (see Pedelacq, J. D., Cabantous, S., Tran, T., Terwilliger, T. C. and Waldo, G. S. (2006) Engineering and characterization of a superfolder green fluorescent protein. […] GFP was followed by a transcriptional terminator prefixing the proB promoter (see Davis, J. H., Rubin, A. J. and Sauer, R. T. (2011) Design, construction and characterization of a set of insulated bacterial promoters. Nucleic acids research, 39, 1131-1141 incorporated herein by reference in its entirety) and strong RBS ‘[…],’ (SEQ ID NO:2) which facilitated expression of the transcriptional regulator. Each inducible system was implemented on high and low copy plasmids. High copy pJKR-H plasmids were constructed with the pUC origin and beta lactamase antibiotic resistance marker derived from pUC19 (New England Biolabs, Ipswich Mass.). Low copy pJKR-L plasmids were constructed in the same way, except that the pUC origin was replaced by the SC101 origin (including repA) from pSC101 obtained from American Type Culture Collection (ATCC #37032). […] The plasmids MphR-p15a-SPEC-mCherry and AcuR-colA-KAN-CFP were designed for compatible maintenance with pJKR-H-CdaR. In both these plasmids the antibiotic resistance gene and origin of replication were replaced with p15a-aadA and colA-kanR. Each enzyme was cloned downstream of the constitutive promoter P2 (see Mutalik, V. K., Guimaraes, J. C., Cambray, G., Lam, C., Christoffersen, M. J., Mai, Q. A., Tran, A. B., Paull, M., Keasling, J. D., Arkin, A. P. et al. (2013) Precise and reliable gene expression via standard transcription and translation initiation elements. Nat Methods, 10, 354-360 hereby incorporated by reference in its entirety) and g10 RBS to create pJKR-MIOX variants. These expression plasmids used the colA origin of replication and kanamycin resistance gene for maintenance. Sequences and plasmids are available on Addgene (plasmid numbers 62557-62570).
DH5α cells transformed with pJKR plasmids and maintained with carbenicillin were used in the induction assays. For each induction evaluation experiment, the cells were grown overnight to saturation before being diluted 1:100 into fresh LB media and incubated at 200 RPM and 37° C. After four hours, 150 μl of the log-phase cells were transferred to 96-well plates and stock inducer was added to achieve the desired range of induction concentrations. Three separate wells were inoculated and independently supplemented with the appropriate amount of inducing chemical for each level of induction. Measurements were made on the same Biotek (Winooksi, Vt.) HT plate reader using the same settings: excitation 485/20, emission 528/20, 37° C. and fast shaking. Fluorescence and absorbance were measured every 10 minutes for 15 hours. Fluorescence was measured in arbitrary units (AFU) while optical density was determined by absorbance (OD). […]

[2] = tested on: DH5α cells; test: Toxicity of inducer chemicals and solvents (growth); settings: for concentration at which toxicity was observed: E. coli without resistance gene; for effect on growth: arabinose high concentrations, glucarate highest concentration, ethanol low levels
Protocol: (§1) Growth rate was measured for each combination of chemical and concentration during the exponential phase of growth. Rates were normalized to the growth rate of cells without any added chemical and plotted as bar height. Concentration of each inducer is indicated in the table, corresponding to the bar chart by order and color. […] Inducer concentrations mirror the concentrations used in the induction experiments.
(§2) 150 μl of cells were transferred into 96-well plates and the assayed chemical was immediately added in triplicate before further incubation at 600 RPM and 37° C.
(§3) Toxicity of the inducer chemicals was measured to help guide the choice of inducer concentration for biosensor applications. In applications where maximum protein production is the goal, toxicity will be less of a consideration. In contrast, sub-toxic induction is important for complex circuits that require the cell to maintain a healthy cell state.

[3] = tested on: TtgR biosensor; test: TtgR biosensor induction with phenol and related compounds; assay type: cell-based, E. coli; settings: 0.1% phenol, 0.1% catechol, up to 0.4% benzene; fluorescence after 90 minutes
Protocol: All experiments were carried out in triplicate.
DH5α cells transformed with pJKR plasmids and maintained with carbenicillin were used in the induction assays. For each induction evaluation experiment, the cells were grown overnight to saturation before being diluted 1:100 into fresh LB media and incubated at 200 RPM and 37° C. After four hours, 150 μl of the log-phase cells were transferred to 96-well plates and stock inducer was added to achieve the desired range of induction concentrations. Three separate wells were inoculated and independently supplemented with the appropriate amount of inducing chemical for each level of induction. Measurements were made on the same Biotek (Winooksi, Vt.) HT plate reader using the same settings: excitation 485/20, emission 528/20, 37° C. and fast shaking. Fluorescence and absorbance were measured every 10 minutes for 15 hours. Fluorescence was measured in arbitrary units (AFU) while optical density was determined by absorbance (OD). Normalized fluorescence was determined by dividing fluorescence by optical density for a given measurement. Five independent wells containing control strains, transformed with pUC19, were included to provide a measurement of background autofluorescence.

[4] = molecular target: MphR (E. coli), regulator sequence SEQ ID NO: 12 (Escherichia coli, UniProt Q9EVJ6); test: MphR biosensor induction (sfGFP reporter, Hill fit); assay type: cell-based; settings: erythromycin
Text: (§4) Plasmids were constructed using Gibson isothermal assembly methods (see Gibson, D. G., Young, L., Chuang, R. Y., Venter, J. C., Hutchison, C. A., 3rd and Smith, H. O. (2009) Enzymatic assembly of DNA molecules up to several hundred kilobases. Nat Methods, 6, 343-345 incorporated herein by reference in its entirety) and transformed into DH5α electrocompetent cells (New England Biolabs, Ipswich Mass.). […] Each inducible system was implemented on high and low copy plasmids. High copy pJKR-H plasmids were constructed with the pUC origin and beta lactamase antibiotic resistance marker derived from pUC19 (New England Biolabs, Ipswich Mass.). Low copy pJKR-L plasmids were constructed in the same way, except that the pUC origin was replaced by the SC101 origin (including repA) from pSC101 obtained from American Type Culture Collection (ATCC #37032). […] In both these plasmids the antibiotic resistance gene and origin of replication were replaced with p15a-aadA and colA-kanR. Each enzyme was cloned downstream of the constitutive promoter P2 (see Mutalik, V. K., Guimaraes, J. C., Cambray, G., Lam, C., Christoffersen, M. J., Mai, Q. A., Tran, A. B., Paull, M., Keasling, J. D., Arkin, A. P. et al. (2013) Precise and reliable gene expression via standard transcription and translation initiation elements. Nat Methods, 10, 354-360 hereby incorporated by reference in its entirety) and g10 RBS to create pJKR-MIOX variants. These expression plasmids used the colA origin of replication and kanamycin resistance gene for maintenance. Sequences and plasmids are available on Addgene (plasmid numbers 62557-62570).
(§5) DH5α cells transformed with pJKR plasmids and maintained with carbenicillin were used in the induction assays. For each induction evaluation experiment, the cells were grown overnight to saturation before being diluted 1:100 into fresh LB media and incubated at 200 RPM and 37° C. […] Measurements were made on the same Biotek (Winooksi, Vt.) HT plate reader using the same settings: excitation 485/20, emission 528/20, 37° C. and fast shaking. Fluorescence and absorbance were measured every 10 minutes for 15 hours. Fluorescence was measured in arbitrary units (AFU) while optical density was determined by absorbance (OD). Normalized fluorescence was determined by dividing fluorescence by optical density for a given measurement. […]
(§6) The ratio of fluorescence to absorbance at 600 nm was used in order to compensate for changes in cell density over time and between experiments (AFU/OD). […] This transfer function is plotted on a log-log scale in FIG. 1A and FIG. 1B to capture the wide range of inducer concentrations and resulting fluorescence values. […]

[5] = tested on: E. coli DH5α cells; test: Toxicity of inducer chemicals (growth)
Protocol: as §1, §2, §3

[6] = tested on: glucarate biosensor cdaR in BL21 cells; test: Real-time glucarate monitoring from pathway intermediates with cdaR biosensor; assay type: cell-based, E. coli; settings: strain with biosensor and biosynthesis pathway
Protocol: In representative examples, identical production conditions (genetics, media composition) were maintained but the exogenously supplemented precursor molecules were varied. […] The end-point fluorescence achieved by the addition of myo-inositol is just 20% that of glucuronate addition.
Glucarate production monitoring was carried out in BL21 cells doubly transformed with pJKR-H-cdaR and pJKR-GA-EXP. BL21 transformed with pJKR-H-cdaR alone was used as a control. Overnight cultures back-diluted 1:100 into Davis media supplemented with 5 g/L glucose. After four hours incubating at 200 RPM and 37° C., 150 μl of the log-phase cells were transferred to 96-well plates and exposed to 1 mM IPTG with the pathway intermediates described. […] End-point measurements were taken after eight hours. Glucarate production for titer measurement was carried out in BL21 transformed with pJKR-GA-EXP. An overnight culture was inoculated 1:100 into 1 mL of LB supplemented with 1 mM IPTG and the specified concentration of pathway intermediate. Production took place in 96-well blocks at 900 RPM and 37° C. for eight hours before supernatants were isolated and 0.2 μm filtered for LC/MS. All production runs were setup in triplicate. Error bars represent the 95% confidence interval derived from the standard error of the mean.

[7] = molecular target: T2, TtgR (Pseudomonas putida), regulator sequence SEQ ID NO: 14 (Pseudomonas putida, UniProt Q9AIU0); test: TtgR biosensor induction (sfGFP reporter, Hill fit); assay type: cell-based; settings: naringenin
T2 construct: expressed in transfected cells; host or cells: E. coli DH5alpha transformed with pJKR-H (high copy) or pJKR-L (low copy) plasmid
Text: as §4, §5, §6

[8] = molecular target: T3, AraC, regulator sequence SEQ ID NO: 10 (Escherichia coli, UniProt P0A9E0); test: AraC biosensor induction (sfGFP reporter, Hill fit); assay type: cell-based, E. coli; settings: arabinose
T3 construct: expressed in transfected cells; host or cells: E. coli DH5alpha transformed with pJKR-H (high copy) or pJKR-L (low copy) plasmid
Text: as §4, §5, §6

Cc1c2c(c(O)c3c(O)cccc13)C(=O)[C@]1(O)C(=O)C(C(N)=O)=C(O)[C@@H](N(C)C)[C@@H]1C2 [Anhydrotetracycline, anhydrotetracycline]
Hill Coefficient ([1]; high copy): 4.2 ± 0.1
Max Expression Velocity ([1]; high copy): 1760 ± 10 s⁻¹
Fold Induction ([1]; high copy): 63 ± 3 fold
EC50 ([1]; high copy): 81 ± 1 nM
Hill Coefficient ([1]; low copy): 3.1 ± 0.3
Max Expression Velocity ([1]; low copy): 116 ± 2 s⁻¹
Fold Induction ([1]; low copy): >50 fold
EC50 ([1]; low copy): 54 ± 2 nM

CC[C@H]1OC(=O)[C@H](C)[C@@H](O[C@H]2C[C@@](C)(OC)[C@@H](O)[C@H](C)O2)[C@H](C)[C@@H](O[C@@H]2O[C@H](C)C[C@H](N(C)C)[C@H]2O)[C@](C)(O)C[C@@H](C)C(=O)[C@H](C)[C@@H](O)[C@]1(C)O [erythromycin]
concentration at which toxicity was observed [2]: ≥ 50 µM
concentration up to which only slight toxicity was observed ([2]; with expression of the erythromycin resistance gene (eryR)): up to 1.4 mM

O=C1C[C@@H](c2ccc(O)cc2)Oc2cc(O)cc(O)c21 [naringenin]
concentration at which toxicity was observed [2]: ≥ 330 µM

c1ccccc1 [benzene]
fluorescent response of TtgR biosensor [3]: background levels of fluorescence

CCO [ethanol]
effect on growth [2]: more modest growth benefits

CC[C@H]1OC(=O)[C@H](C)[C@@H](O[C@H]2C[C@@](C)(OC)[C@@H](O)[C@H](C)O2)[C@H](C)[C@@H](O[C@@H]2O[C@H](C)C[C@H](N(C)C)[C@H]2O)[C@](C)(O)C[C@@H](C)C(=O)[C@H](C)[C@@H](O)[C@]1(C)O [Erythromycin, erythromycin]
Hill Coefficient ([4]; high copy): 1.6 ± 0
Max Expression Velocity ([4]; high copy): 2070 ± 20 s⁻¹
Hill Coefficient ([4]; low copy): 1.6 ± 0.1
Max Expression Velocity ([4]; low copy): 66 ± 1 s⁻¹
Toxicity in induction experiment ([5]; 1400 μM and 450 μM erythromycin, low-copy MphR): high toxicity
Toxicity ([5]; with eryR, erythromycin up to 1.4 mM): only slight toxicity

O=C(O)[C@H]1OC(O)[C@H](O)[C@@H](O)[C@@H]1O (mixture of isomers) [glucuronate]
end-point fluorescence relative to that of glucarate ([6]; eight hours): 80%

O=C1C[C@@H](c2ccc(O)cc2)Oc2cc(O)cc(O)c21 [Naringenin, naringenin]
Hill Coefficient ([7]; high copy): 3.8 ± 0.6
Max Expression Velocity ([7]; high copy): 180 ± 6 s⁻¹
Hill Coefficient ([7]; low copy): 2.3 ± 0.4
Max Expression Velocity ([7]; low copy): 25 ± 1 s⁻¹

O=C[C@@H](O)[C@H](O)[C@H](O)CO [arabinose]
effect on growth [2]: higher growth rates

Oc1ccccc1 [phenol]
fluorescent response of TtgR biosensor [3]: activated the sensor

O[C@H]1[C@H](O)[C@@H](O)[C@H](O)[C@@H](O)[C@H]1O [myo-inositol]
lag of fluorescence response behind glucuronate [6]: 60 min
end-point fluorescence relative to that of glucuronate addition ([6]; eight hours): 20%

Cc1c2c(c(O)c3c(O)cccc13)C(=O)[C@]1(O)C(=O)C(C(N)=O)=C(O)[C@@H](N(C)C)[C@@H]1C2 [anhydrotetracycline]
concentration at which growth defect was observed ([2]; E. coli, defect likely due to solvent ethanol): 0.43 µM

OC1OC[C@H](O)[C@H](O)[C@H]1O (stereo partly shown) [Arabinose, arabinose]
Hill Coefficient ([8]; high copy): 1.3 ± 0.1
Max Expression Velocity ([8]; high copy): 3150 ± 60 s⁻¹
Hill Coefficient ([8]; low copy): 1.3 ± 0.2
Max Expression Velocity ([8]; low copy): 1260 ± 50 s⁻¹

O=C(O)[C@@H](O)[C@@H](O)[C@H](O)[C@@H](O)C(=O)O [glucarate]
effect on growth [2]: more modest growth benefits
